The conditions of data set [1]: as reported on FDA approved label, cited from earlier work.
Data set [2] in a line: Evaluation of aqueous solubility in different aqueous buffers (HPLC quantification). In kind it is physicochemical. The settings on record: thermodynamic from solid, equilibrated at 25° C. for 24 hours. As to the method: Aqueous solubility of the compounds of this invention was determined by suspending sufficient compound in different aqueous buffers to give a maximum final concentration of ≧10 mg/mL of the compound. The resulting suspension was equilibrated at 25° C. for 24 hours then the pH is measured. The suspension was then filtered through a glass fibre C filter into a 96 well plate. The filtrate was diluted by a factor of 10. Quantification was by HPLC with reference to a standard solution in DMSO. Different volumes of the standard, diluted and undiluted sample solutions were injected. The solubility was calculated using the peak areas determined by integration of the peak found at the same retention time as the principal peak in the standard injection.

The mark [3] stands for this setting: Buffer: FaSSIF (fasted state simulated intestinal fluid), final pH 6.61 (103), 6.58 (101).

In brackets after ≈: the same amount, converted by molar mass. Where two headings read alike, the source gives them in different places.

With `CS(=O)(=O)CCNCc1ccc(-c2ccc3ncnc(Nc4ccc(OCc5cccc(F)c5)c(Cl)c4)c3c2)o1.Cc1ccc(S(=O)(=O)O)cc1.Cc1ccc(S(=O)(=O)O)cc1.O` [Lapatinib ditosylate, N-[3-Chloro-4-(3-fluorobenzyloxy)phenyl]-6-[5-[2-(methylsulfonyl)ethylaminomethyl]furan-2-yl]quinazolin-4-amine bis(4-methylbenzenesulfonate) hydrate], the “Solubility” value in data set [1] (0.1N HCl) was 1 µg/mL; in data set [1] (Water) it was 7 µg/mL.

The compound `CS(=O)(=O)CCN(Cc1ccc(-c2ccc3ncnc(Nc4ccc(OCc5cccc(F)c5)c(Cl)c4)c3c2)o1)C(=O)OCOP(=O)(O)O` [Compound 101, Phosphonooxymethyl (5-(4-(3-chloro-4-(3-fluorobenzyloxy)phenylamino)quinazolin-6-yl)furan-2-yl)methyl(2-(methylsulfonyl)ethyl)carbamate] came in with a solubility at 24 h in data set [2] (setting [3]) of 25 µg/mL (≈ 34 µM).

With `CS(=O)(=O)CCN(Cc1ccc(-c2ccc3ncnc(Nc4ccc(OCc5cccc(F)c5)c(Cl)c4)c3c2)o1)C(=O)OCOP(=O)([O-])[O-].[Na+].[Na+]` [Compound 103, Sodium (((5-(4-(3-Chloro-4-(3-fluorobenzyloxy)phenylamino)quinazolin-6-yl)furan-2-yl)methyl)(2-(methylsulfonyl)ethyl)carbamoyloxy)methyl phosphate], the solubility at 24 h in data set [2] (aqueous buffer, Buffer: Phosphate pH 6.3, final pH 6.45) is 170 µg/mL; in data set [2] (aqueous buffer, Buffer: Phosphate pH 6.8, final pH 7.03), 520 µg/mL; in data set [2] (aqueous buffer, Buffer: Phosphate pH 7.3, final pH 7.41) it was 4600 µg/mL; in data set [2] (setting [3]) it was 9100 µg/mL.

The values are drawn from patent US20110300132A1, “4-AMINOQUINAZOLINE PRODRUGS” (Concert Pharmaceuticals, Inc., priority 2008, published 2011).
